Reference: PubChem BioAssay AID192 (DTP/NCI, 2004)
“And” between values parts separate entries of the source, which are not always exact repeats. Identical values can stand only once. Toxic doses and inconclusive results are not listed. Rule for the calls: active = survival T/C of 150% or more; inactive = T/C below 125% in these data.

Test system: BDF1 mice, B16 melanoma ip, median survival T/C
Test: NCI In Vivo Anticancer Drug Screen. Data for tumor model B16 Melanoma (intraperitoneal) in B6D2F1 (BDF1) mice
Details: endpoint: median survival time, higher = longer survival
In short: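 Vehicle-treated animals serve as the reference (C); treated animals (T) are scored for survival or tumor size after tumor transplantation.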

[1] = dose: 50.0 mg/kg/injection, schedule: Q01DX009 (ip), vehicle: Klucel (hydroxypropylcellulose) (HPC)
[2] = dose: 100.0 mg/kg/injection, schedule: Q01DX009 (ip), vehicle: Klucel (hydroxypropylcellulose) (HPC)
[3] = dose: 200.0 mg/kg/injection, schedule: Q01DX009 (ip), vehicle: Klucel (hydroxypropylcellulose) (HPC)
[4] = dose: 100.0 mg/kg/injection, schedule: Q04DX003 (ip), vehicle: saline with Tween-80
[5] = dose: 25.0 mg/kg/injection, schedule: Q01DX009 (ip), vehicle: saline with Tween-80
[6] = dose: 25.0 mg/kg/injection, schedule: Q04DX003 (ip), vehicle: saline with Tween-80
[7] = dose: 50.0 mg/kg/injection, schedule: Q01DX009 (ip), vehicle: saline with Tween-80
[8] = dose: 50.0 mg/kg/injection, schedule: Q04DX003 (ip), vehicle: saline with Tween-80
[9] = dose: 100.0 mg/kg/injection, schedule: Q01DX009 (ip), vehicle: saline with Tween-80
[10] = dose: 3.0 mg/kg/injection, schedule: Q01DX009 (ip), vehicle: saline with Tween-80
[11] = dose: 6.25 mg/kg/injection, schedule: Q01DX009 (ip), vehicle: saline with Tween-80
[12] = dose: 12.5 mg/kg/injection, schedule: Q01DX009 (ip), vehicle: saline with Tween-80
[13] = dose: 400.0 mg/kg/injection, schedule: Q01DX009 (ip), vehicle: Klucel (hydroxypropylcellulose) (HPC)
[14] = dose: 25.0 mg/kg/injection, schedule: Q01DX009 (ip), vehicle: Klucel (hydroxypropylcellulose) (HPC)
[15] = dose: 100.0 mg/kg/injection, schedule: Q01DX009 (ip), vehicle: saline
[16] = dose: 200.0 mg/kg/injection, schedule: Q01DX009 (ip), vehicle: saline with Tween-80
[17] = dose: 100.0 mg/kg/injection, schedule: Q04DX003 (ip), vehicle: Klucel (hydroxypropylcellulose) (HPC)
[18] = dose: 200.0 mg/kg/injection, schedule: Q04DX003 (ip), vehicle: Klucel (hydroxypropylcellulose) (HPC)

Measured: T/C

CC(=O)OC1c2ccccc2C(=O)C1(OC(C)=O)c1ccccc1 (stereo unspecified)
inactive: [1] 102 % of control | [2] 94 % of control | [3] 102 % of control

NC(C/[N+]([O-])=N/O)C(=O)O (stereo unspecified)
inactive: dose: 15.6 mg/kg/injection, schedule: Q01DX009 (ip), vehicle: saline 97 % of control | dose: 15.6 mg/kg/injection, schedule: Q01DX009 (ip), vehicle: water 105 % of control | dose: 15.6 mg/kg/injection, schedule: Q04DX003 (ip), vehicle: saline 100 % of control | dose: 15.6 mg/kg/injection, schedule: Q04DX003 (ip), vehicle: water 102 % of control | dose: 16.0 mg/kg/injection, schedule: Q01DX009 (ip), vehicle: saline 117 % of control | dose: 31.3 mg/kg/injection, schedule: Q01DX009 (ip), vehicle: saline 102 % of control and 105 % of control | dose: 31.3 mg/kg/injection, schedule: Q01DX009 (ip), vehicle: water 108 % of control | dose: 31.3 mg/kg/injection, schedule: Q04DX003 (ip), vehicle: saline 97 % of control | dose: 31.3 mg/kg/injection, schedule: Q04DX003 (ip), vehicle: water 97 % of control | dose: 62.5 mg/kg/injection, schedule: Q01DX009 (ip), vehicle: saline 111 % of control | dose: 62.5 mg/kg/injection, schedule: Q01DX009 (ip), vehicle: water 111 % of control | dose: 62.5 mg/kg/injection, schedule: Q04DX003 (ip), vehicle: saline 100 % of control and 95 % of control | dose: 62.5 mg/kg/injection, schedule: Q04DX003 (ip), vehicle: water 108 % of control | [4] 100 % of control | dose: 125.0 mg/kg/injection, schedule: Q04DX003 (ip), vehicle: saline 97 % of control and 111 % of control | dose: 125.0 mg/kg/injection, schedule: Q04DX003 (ip), vehicle: water 111 % of control | dose: 200.0 mg/kg/injection, schedule: Q04DX003 (ip), vehicle: saline with Tween-80 100 % of control | dose: 250.0 mg/kg/injection, schedule: Q04DX003 (ip), vehicle: saline 100 % of control and 109 % of control | dose: 250.0 mg/kg/injection, schedule: Q04DX003 (ip), vehicle: water 111 % of control | dose: 400.0 mg/kg/injection, schedule: Q04DX003 (ip), vehicle: saline with Tween-80 106 % of control | dose: 500.0 mg/kg/injection, schedule: Q04DX003 (ip), vehicle: saline 107 % of control | dose: 500.0 mg/kg/injection, schedule: Q04DX003 (ip), vehicle: water 97 % of control

O=C(CCCCl)CC(O)(C(F)(F)Cl)C(F)(F)Cl
inactive: [5] 114 % of control | [6] 97 % of control | [7] 114 % of control | [8] 102 % of control | [9] 117 % of control | [4] 105 % of control

COc1cc(C[C@H]2c3cc(OC)c(OC)cc3CCN2C)c(Oc2cc3c(cc2OC)-c2c(OC)c(OC)cc4c2[C@H](C3)N(C)CC4)cc1OC
inactive: [10] 93 % of control | [11] 92 % of control and 95 % of control | [12] 88 % of control and 97 % of control and 107 % of control | dose: 75.0 mg/kg/injection, schedule: Q01DX009 (ip), vehicle: saline with Tween-80 87 % of control

CC12C=CC3(CCC4C(C)(C)C(O)C(=O)CC4(C)C3CC1=O)C2 (stereo unspecified)
inactive: [2] 97 % of control | [3] 89 % of control | [13] 94 % of control

CC(=O)N(C)c1ccc(/C=C2\C=Cc3ccccc32)cc1
inactive: [11] 96 % of control | [12] 100 % of control | [5] 102 % of control

CC1(C)N=C(N)N=C(N)N1c1ccc(CNC(=O)Nc2ccc(S(=O)(=O)F)cc2)cc1
inactive: dose: 50.0 mg/kg/injection, schedule: Q04DX003 (ip), vehicle: saline 112 % of control

CC(=O)C(N=Nc1ccccc1)C(C)=O
inactive: [14] 100 % of control | [1] 113 % of control | [2] 113 % of control

O=C(O)C(O)C(O)C1[O][Sb][O]C1CO (stereo unspecified)
inactive: dose: 5.0 mg/kg/injection, schedule: Q01DX009 (ip), vehicle: saline 96 % of control | [15] 100 % of control | dose: 200.0 mg/kg/injection, schedule: Q01DX009 (ip), vehicle: saline 88 % of control

Cc1[nH]c(=O)[nH]c(=O)c1NC(=O)c1ccccc1[N+](=O)[O-]
inactive: [12] 100 % of control | [5] 102 % of control | [7] 102 % of control

NC(=O)Nc1n[nH]c(-c2ccccc2)n1
inactive: dose: 25.0 mg/kg/injection, schedule: Q01DX009 (ip), vehicle: saline 99 % of control | dose: 50.0 mg/kg/injection, schedule: Q01DX009 (ip), vehicle: saline 99 % of control | [15] 86 % of control

CC(=O)[O][Pb]([CH2]C(C)C)([CH2]C(C)C)[CH2]C(C)C
inactive: dose: 0.09 mg/kg/injection, schedule: Q01DX009 (ip), vehicle: Klucel (hydroxypropylcellulose) (HPC) 94 % of control | dose: 0.19 mg/kg/injection, schedule: Q01DX009 (ip), vehicle: Klucel (hydroxypropylcellulose) (HPC) 98 % of control | dose: 0.38 mg/kg/injection, schedule: Q01DX009 (ip), vehicle: Klucel (hydroxypropylcellulose) (HPC) 93 % of control | dose: 0.75 mg/kg/injection, schedule: Q01DX009 (ip), vehicle: Klucel (hydroxypropylcellulose) (HPC) 88 % of control and 98 % of control

CC(C)COC(=O)c1ccc(NC(=O)Nc2ccccc2)cc1
inactive: [9] 93 % of control | [16] 102 % of control | dose: 400.0 mg/kg/injection, schedule: Q01DX009 (ip), vehicle: saline with Tween-80 97 % of control

CCC(C)C(C)(COC(N)=O)COC(N)=O (stereo unspecified)
inactive: [17] 97 % of control | [18] 102 % of control | dose: 400.0 mg/kg/injection, schedule: Q04DX003 (ip), vehicle: Klucel (hydroxypropylcellulose) (HPC) 105 % of control

O=C(O)CNC(=O)c1ccc([N+](=O)[O-])cc1
inactive: [9] 89 % of control

NNC(=O)NO
inactive: [12] 102 % of control | [5] 121 % of control

N=C(N)SCCCCCCCCCCSC(=N)N
inactive: [11] 95 % of control | [12] 88 % of control | [5] 86 % of control and 88 % of control

NC(=O)c1ccc(N)nc1
inactive: dose: 0.09 mg/kg/injection, schedule: Q01DX009 (ip), vehicle: saline 100 % of control | dose: 0.18 mg/kg/injection, schedule: Q01DX009 (ip), vehicle: saline 86 % of control and 107 % of control | dose: 0.37 mg/kg/injection, schedule: Q01DX009 (ip), vehicle: saline 113 % of control and 114 % of control | dose: 0.75 mg/kg/injection, schedule: Q01DX009 (ip), vehicle: saline 102 % of control | dose: 1.5 mg/kg/injection, schedule: Q01DX009 (ip), vehicle: saline 112 % of control and 115 % of control | dose: 2.0 mg/kg/injection, schedule: Q01DX009 (ip), vehicle: saline 100 % of control | dose: 3.12 mg/kg/injection, schedule: Q04DX003 (ip), vehicle: saline 111 % of control | dose: 6.25 mg/kg/injection, schedule: Q04DX003 (ip), vehicle: saline 107 % of control

Cc1cc(CCl)c(C)c(Br)c1C
inactive: dose: 6.25 mg/kg/injection, schedule: Q01DX009 (ip), vehicle: Klucel (hydroxypropylcellulose) (HPC) 97 % of control | dose: 12.5 mg/kg/injection, schedule: Q01DX009 (ip), vehicle: Klucel (hydroxypropylcellulose) (HPC) 119 % of control | [14] 105 % of control | [1] 105 % of control

CCOC(=O)c1cnc(NN)nc1Nc1cc(Cl)cc(Cl)c1
inactive: [11] 97 % of control | [12] 101 % of control | [5] 91 % of control

CCCCCCCC/C=C\CCCCCCCCN1CC(C(=O)[O][Pb]([CH2]C)([CH2]C)[CH2]C)CC1=O (stereo unspecified)
inactive: dose: 0.75 mg/kg/injection, schedule: Q01DX009 (ip), vehicle: saline with Tween-80 107 % of control | dose: 1.5 mg/kg/injection, schedule: Q01DX009 (ip), vehicle: saline with Tween-80 106 % of control | [10] 102 % of control | dose: 6.0 mg/kg/injection, schedule: Q01DX009 (ip), vehicle: saline with Tween-80 107 % of control

CC(=O)OCC(CCC(C)C)=C(C)C
inactive: [6] 104 % of control | [8] 104 % of control | [9] 97 % of control | [4] 86 % of control and 97 % of control | [16] 104 % of control

CCOC(=O)C(Cc1ccccc1)NP(=O)(OCCCl)OCCCl (stereo unspecified)
inactive: [17] 104 % of control | [18] 86 % of control

CCCCCCCCCC1(C)OCC(COC(N)=O)O1 (stereo unspecified)
inactive: [14] 90 % of control | [1] 90 % of control | [2] 92 % of control | [3] 95 % of control | [13] 95 % of control
